Results published in publication PMC2908543, “Uropathogenic Escherichia coli Modulates Immune Responses and Its Curli Fimbriae Interact with the Antimicrobial Peptide LL-37” (PLoS Pathogens, 2010).
Residues, ends and D or L forms follow the SMILES beside them.

Tests used:
toll-like receptor 2 = conditions: cytokine induction by Salmonella; ref [31]; cited from earlier work
Source text: In the pathogenesis of infection, curli fimbriae have previously been implicated in the attachment and invasion of host cells, interaction with host proteins and activation of the immune system, [29], [30].

CsgA polymerization = target: T1, CsgA polymerization (Escherichia coli, UniProt P28307); assay: CsgA polymerization, Thioflavin T assay, Tecan plate reader; assay type: biochemical; conditions: 20 µM ThT, 37°C
T1 construct: made in house; host or cells: E. coli LSR12 (C600::csg), co-expressed with CsgG
Experimental: (§1) CsgA-His6 and CsgG, a lipoprotein that is required for CsgA secretion, were overexpressed in LSR12 (C600::csg). The purification procedure of recombinant CsgA-His6 was performed as previously described with some modifications. The filtrate was incubated with nickel-nitrilotriacetic acid (Ni-NTA) agarose (Invitrogen) for 1 h at 4°C with shaking, centrifuged at 200×g for 5 min and transferred to a polyprep chromatography column (Bio-Rad, Hercules, CA, USA). To confirm protein identity of CsgA-His6, the isolated protein was prepared and subjected to SDS-PAGE as described below, and thereafter the protein was transferred from the gel to a polyvinylidene fluoride (PVDF) membrane (Invitrogen) at 160 mA for 60 min. The band of 15 kDa, corresponding to the molecular weight of CsgA-His6, was excised from the membrane stained with Coomassie Blue and analysed with N-terminal sequence analysis as has been described. Since it has previously been shown that CsgA-His6 has the same polymerizing properties as wild-type CsgA [59], we refer to CsgA-His6 as CsgA.
Purified recombinant monomeric CsgA (10 µM) with or without different concentrations of the peptides LL-37, sLL-37 or VIP was mixed with 20 µM of the fiber-specific fluorescent probe ThT (Sigma-Aldrich). Fluorescence was measured with a Tecan infinite M200 reader (Tecan Nordic AB, Täby, Sweden). The excitation and emission wavelength was 430 and 490 nm, respectively. Measurements were conducted at 37°C every 10 min after shaking the sample for five seconds. Background fluorescence of the peptides themselves was subtracted.

CsgA = assay: CD spectroscopy of CsgA; design: species or system Escherichia coli; conditions: 40 µM CsgA alone, 50 mM KPi, 0.02% NaN3, pH 7.2, 60 h at 37°C
Experimental: Samples containing 40 µM CsgA in 50 mM potassium phosphate buffer (KPi) and 0.02% NaN3, pH 7.2, with and without 10 µM LL-37 were incubated for 60 h at 37°C. The samples were then assayed with a Jasco J-810 spectropolarimeter from 190 to 250 nm in a quartz cell with a 1-mm path length at 20°C. The spectrum of buffer alone and LL-37 in buffer was subtracted from the spectra for CsgA alone and for CsgA together with LL-37, respectively.

[1] = tested on: E. coli strain No. 12 and isogenic mutants; assay type: cell-based, Escherichia coli; conditions: bacteria pre-grown planktonically, curli expression suppressed (data not shown)
Experimental: For further investigation, E. coli isolate No. 12 from a child with pyelonephritis was chosen. This was a typical isolate expressing both curli and cellulose as well as type 1 fimbriae and yielding an approximately median level of biofilm as measured on microtiter plates. One-step knockout of bcsA and csgBA was carried out according to the protocol of Datsenko and Wanner with modifications, [50]. The following mutants were constructed using oligos listed in Table 1; WE1 bcsA::Cm, deficient in cellulose production; WE11 csgBA::Cm, deficient in curli production; and WE16 csgBA bscA::Cm, deficient in both cellulose and curli production. Expression of curli and cellulose in strain No. 12 was confirmed by these knockouts. Production of type 1 fimbriae under the culture conditions used for experiments was confirmed by yeast agglutination (see below).
The susceptibility of wild-type and mutant E. coli strains to synthetic LL-37 and mCRAMP (Innovagen AB, Lund, Sweden) was determined using a broth microdilution method. Briefly, bacteria were grown overnight at 37°C on LB plates with or without salt, inhibiting or promoting the formation of biofilm, respectively. Then, bacteria were suspended in PBS and diluted in LB broth without salt in a concentration of 10^5 CFU/ml. The bacterial concentration was verified by viable count after serial dilutions in PBS. Bacteria (90 µl suspension) were grown in 96-well plates in the presence of 10 µl aqueous solution of synthetic LL-37 or mCRAMP in final concentrations ranging from 0.6 µM to 20 µM in 2-fold dilutions. After 20 h, bacterial viability was measured colorimetrically by reduction of Alamar blue (BioSource International, Camarillo, CA, USA) for 1 h at 37°C [57]. The IC50 was determined as the peptide concentration that gave 50% reduction of the absorbance at 570 nm relative to bacteria grown without peptide.

monomeric CsgA = target: T2, monomeric CsgA (Escherichia coli, UniProt P28307); assay: Surface plasmon resonance, monomeric CsgA; conditions: monomeric CsgA immobilized (2000 response units), 0.1 µM peptide, 20 µl/min for 3 min, HBS-EP, Biacore 3000; binding constants not determinable
T2 construct: made in house; host or cells: E. coli LSR12 (C600::csg), co-expressed with CsgG
Experimental: (§2) Binding analysis of LL-37 to both monomeric and polymeric CsgA was performed with surface plasmon resonance (Biacore 3000 instrument; Biacore AB, Uppsala, Sweden). Both monomeric and polymeric CsgA was immobilized on a CM5 sensor chip (Biacore AB) surface by amine coupling. The chip surface was normalized in 70% glycerol and lanes on the chip were activated with injection of 35 µL 0.05 M N-hydroxysuccinimide (NHS)/0.2 M N-ethyl-N′-[3-dimethylamino) propyl]carbodiimide (EDC). Polymeric or monomeric CsgA (1 µM in 10 mM sodium acetate, pH 4.5) was then immobilized on the chip to 7000 response units and 2000 response units, respectively. After immobilization, the lanes were subjected to 60 µL ethanolamine (1 M, pH 8.5) to deactivate remaining activated carboxylic groups. One lane, activated and deactivated, was used as negative control (without addition of CsgA). Standard Biacore HBS-EP (Biacore AB) was utilized as running buffer, and 0.1 µM LL-37, sLL-37 or VIP were injected at 20 µl/min for 3 min. The surface was regenerated after each cycle with 100 mM HCl.

[2] = tested on: curli-mediated biofilm formation by E. coli; assay: Effect on formation of biofilm, crystal violet microtiter plate; assay type: cell-based, Escherichia coli
Experimental: To measure the ability of the bacteria to adhere and to form biofilm a crystal violet assay in polystyrene microtiter plates (Costar, Corning, NY, USA) was performed. Bacteria were grown in Luria-Bertani (LB) broth without salt for 24 h at 37°C without shaking. Biofilm was then stained with crystal violet (3%). The dye was solubilized with ethanol (95%) and the optical density was measured at 570 nm.
Plates were filled with 90 µL bacterial culture of planktonic cells and 10 µL of aqueous solution of LL-37 in the same concentrations as in the susceptibility assay. As control peptides, sLL-37 (Innovagen AB) and VIP [27] with similar structural properties as LL-37 were utilized. The plates were incubated without shaking at 37°C for 20 h. After incubation, the amount of biofilm formed was determined as described above.

polymeric CsgA = target: T3, polymeric CsgA (Escherichia coli, UniProt P28307); assay: Surface plasmon resonance, polymeric CsgA; conditions: polymeric CsgA immobilized (7000 response units), 0.1 µM peptide, 20 µl/min for 3 min, HBS-EP, Biacore 3000; binding constants not determinable
T3 construct: made in house; host or cells: E. coli LSR12 (C600::csg), co-expressed with CsgG
Experimental: as §2

CsgA fiber formation = assay: CsgA fiber formation, Thioflavin T, confocal microscopy; assay type: biochemical, Escherichia coli; conditions: CsgA with equimolar peptide (1∶1), 20 µM ThT, 20 h at 37°C; CsgA alone = 1 arbitrary unit; corrected for peptide fluorescence; two experiments
Experimental: as §1
Recombinant monomeric CsgA was mixed with equimolar LL-37, sLL-37 or VIP and 20 µM ThT, and incubated over night at 37°C, washed twice, and suspended in 10 mM Kpi, pH 7.2 before mounting in ProLong Gold antifade mounting medium (Invitrogen). Images were acquired on a Leica TCS SP5 confocal microscope using a 20× objective. Fluorescence intensity was quantified using ImageJ software. The difference in fluorescence intensity of CsgA with and without peptides was calculated and corrected for the contribution of fluorescence from the peptides themselves.

T1 sequence (P28307 21-151): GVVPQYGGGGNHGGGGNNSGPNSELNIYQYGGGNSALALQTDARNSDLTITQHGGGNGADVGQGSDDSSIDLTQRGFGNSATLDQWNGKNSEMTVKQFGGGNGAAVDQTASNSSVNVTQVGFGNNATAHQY
T2 sequence (P28307 21-151): as above
T3 sequence (P28307 21-151): as above

CsgA: major curli subunit, recombinant CsgA-His6
binding to toll-like receptor 2 (toll-like receptor 2): binding of CsgA to toll-like receptor 2 | time to stationary phase of CsgA polymerization (CsgA polymerization; 10 µM CsgA alone): approximately 300 min | solubility of polymeric CsgA (from CD signal amplitude) (CsgA): decreased solubility due to polymerization

CC[C@H](C)[C@H](NC(=O)[C@H](CCCCN)NC(=O)[C@H](CCC(=O)O)NC(=O)CNC(=O)CNC(=O)[C@H](CCCCN)NC(=O)[C@H](CCCNC(=N)N)NC(=O)[C@H](CC(C)C)NC(=O)[C@H](CC(C)C)NC(=O)CN)C(=O)NCC(=O)N[C@@H](CCC(=O)O)C(=O)N[C@@H](CCCCN)C(=O)N[C@@H](CC(C)C)C(=O)N[C@@H](CCCCN)C(=O)N[C@@H](CCCCN)C(=O)N[C@H](C(=O)NCC(=O)N[C@@H](CCC(N)=O)C(=O)N[C@@H](CCCCN)C(=O)N[C@H](C(=O)N[C@@H](CCCCN)C(=O)N[C@@H](CC(N)=O)C(=O)N[C@@H](Cc1ccccc1)C(=O)N[C@@H](Cc1ccccc1)C(=O)N[C@@H](CCC(N)=O)C(=O)N[C@@H](CCCCN)C(=O)N[C@@H](CC(C)C)C(=O)N[C@H](C(=O)N1CCC[C@H]1C(=O)N[C@@H](CCC(N)=O)C(=O)N1CCC[C@H]1C(=O)N[C@@H](CCC(=O)O)C(=O)N[C@@H](CCC(N)=O)C(=O)O)C(C)C)[C@@H](C)CC)[C@@H](C)CC [mCRAMP] (H-GLLRKGGEKIGEKLKKIGQKIKNFFQKLVPQPEQ-OH; N-terminus and C-terminus assumed)
difference in resistance between the strains [1]: no significant difference in the resistance

vasoactive intestinal peptide [VIP]
binding / association and dissociation by SPR (monomeric CsgA): faster dissociation rates than LL-37, indicating a weaker binding to CsgA | reduction of biofilm formation ([2]; 2.5 µM peptide, cellulose-negative, curli-expressing E. coli strain, 37°C, 20 h, two experiments in triplicates): 10% | biofilm reduction compared with the effect of LL-37 ([2]; 2.5 µM, P = 0.001, t-test): significantly lower reduction than the effect of LL-37 | binding / association and dissociation by SPR (polymeric CsgA): faster dissociation rates than LL-37, indicating a weaker binding to CsgA | fluorescence relative to CsgA alone (CsgA fiber formation): approximately 0.2 arbitrary units | inhibition of CsgA polymerization (ThT fluorescence) (CsgA polymerization; 10 µM CsgA with different concentrations of peptide): less pronounced effect on CsgA polymerization than LL-37
